Data taken from publication PMC10485894, “Corticosteroids as Selective and Effective Modulators of Glycine Receptors” (ACS Chemical Neuroscience, 2023).
Where two headings read alike, the source gives them in different places.

Columns and labels:
[1] = system: GABA-A receptors (GABAAR); assay: GABA-activated chloride current (IGABA), whole-cell patch clamp in isolated cerebellar Purkinje cells
Method: (§1) First, the ability of steroids to affect the holding current at the voltage-clamp regime was tested. […] Next, the influence of all of the compounds on IGABA and IGly was evaluated. […] The latter effect was quantified by the change in the time constant of the IGly decay (IGly τdes).
(§2) The cells were isolated from rat brain slices as described in detail elsewhere.[47] Briefly, the slices (200–500 μm) of Wistar rat (11–14 days of age) hippocampus or cerebellum were incubated at room temperature for at least 2 h in a solution containing the following components (in mM): 124 NaCl, 3 KCl, 2 CaCl2, 2 MgSO4, 25 NaHCO3, 1.3 NaH2PO4, and 10 D-glucose, pH 7.4. The saline was continuously stirred and bubbled with carbogen (95% O2 + 5% CO2). Single pyramidal neurons from the hippocampal CA3 area or Purkinje cells from sagittal slices of the cerebellum were isolated by a vibrating fused glass pipet with a spherical tip.
(§3) Transmembrane currents were recorded using a conventional patch-clamp technique in the whole-cell configuration. […] The solution in the recording pipet contained the following (in mM): 40 CsF, 100 CsCl, 0.5 CaCl2, 5 EGTA, 3 MgCl2, 4 NaATP, 5 HEPES, pH 7.3. The composition of the extracellular solution was as follows (in mM): 140 NaCl, 3 KCl, 3 CaCl2, 3 MgCl2, 10 D-glucose, 10 HEPES hemisodium, pH 7.4. The speed of perfusion was 0.6 mL/min. Recording of the currents was performed using an EPC7 patch-clamp amplifier (HEKA Elektronik, Germany). The holding potential was maintained at −70 mV. Transmembrane currents were filtered at 3 kHz, stored, and analyzed with IBM-PC computer, using homemade software.
(§4) Statistical analysis was performed with Prism Graphpad software. […] N = 6–8 cells from 3 animals for every average value. […] The EC50 value for steroid potentiation of the IGABA was determined using the equation: Y = Bottom + (Top – Bottom)/[1 + (EC50/C)^n], where Bottom and Top are current amplitudes measured in the control solution and in the presence of steroid, respectively, C is the concentration of steroid, EC50 is the half-maximal stimulating concentration, and n is the slope factor (Hill coefficient).

glycine receptors (GlyR) = assay: Glycine-activated chloride current (IGly), whole-cell patch clamp in isolated hippocampal pyramidal neurons; settings: for Ipeak max (maximum inhibition attainable) / IC50 / τdes max (maximum inhibition attainable) / normalized charge (Q) of IGly, maximum inhibition (max): 100 μM glycine; for Ipeak max (maximum inhibition attainable) / τdes max (maximum inhibition attainable) / normalized charge (Q) of IGly, maximum inhibition (max): fraction; for IGly peak, effect at 10 μM / IGly τdes, effect at 10 μM: steroid 10 μM coapplied with 100 μM glycine; for IGly peak, effect at 10 μM: hippocampal neurons; for IGly τdes, effect at 10 μM: time constant of IGly decay; for τdes max (maximum inhibition attainable): time constant of desensitization of IGly;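 on all read-outs here: rat CA3 hippocampal pyramidal cells, whole-cell voltage clamp held at −70 mV, steroids tested over 0.01–100 µM, 6–8 cells from 3 animals per mean value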
Method: as §1, §2, §3, §4

[2] = read-out: Ipeak IC50, peak amplitude of IGly
[3] = read-out: τdes IC50, acceleration of IGly desensitization
[4] = read-out: normalized charge (Q) of IGly, IC50, area under the IGly curve
[5] = steroid 10 μM coapplied with GABA (2 or 5 μM), Purkinje cells

SMILES	Ipeak max (maximum inhibition attainable) (glycine receptors (GlyR); peak amplitude of IGly)	IC50 (glycine receptors (GlyR); [2])	IC50 (glycine receptors (GlyR); [3])	IGly peak, effect at 10 μM (glycine receptors (GlyR))	IGly τdes, effect at 10 μM (glycine receptors (GlyR))	τdes max (maximum inhibition attainable) (glycine receptors (GlyR))	IGABA peak, effect at 10 μM [1]	IGABA peak, effect at 10 μM [1, 5]	also measured
C[C@]12CC[C@@H](O)C[C@@H]1CC[C@@H]1[C@@H]2[C@@H](O)C[C@]2(C)[C@@H](C(=O)CO)CC[C@@H]12 [3α5α-CORT, 3α,11β,21-Trihydroxy-5α-pregnan-20-one]	0.51 ± 0.1	11.8 ± 5.7 µM	0.72 ± 0.03 µM	-26%	-54%	0.59 ± 0.08	–	–	IGABA, % of control [1]: 120 ± 16 % of control; effect on maximal GABA current [1]: did not change; maximum effect (max) on IGABA [1]: 420 ± 19 % of the control; potentiating effect on IGABA at higher GABA concentrations [1]: not observed; threshold concentration for potentiation of IGABA ([1]; 2 μM GABA): 5 µM; IGABA peak amplitude, % of control ([1]; 5 μM steroid, 2 μM GABA): 150 ± 8 % of the control; IGABA, % of control ([1]; 50 μM steroid, 2 μM GABA): 371 ± 16 % of control; IGABA, % of control ([1]; 50 μM steroid, 5 μM GABA): 156 ± 15 % of control
C[C@]12CC[C@@H](O)C[C@H]1CC[C@@H]1[C@@H]2[C@@H](O)C[C@]2(C)[C@@H](C(=O)CO)CC[C@@H]12 [3α5β-CORT, 3α,11β,21-Trihydroxy-5β-pregnan-20-one]	0.44 ± 0.1	23 ± 9.6 µM	15.2 ± 6.2 µM	No effect	-24%	0.56 ± 0.08	–	–	IGABA peak amplitude, % of control [1]: 133 ± 8 % of the control; effect on maximal GABA current [1]: did not change; maximum effect (max) on IGABA [1]: 198 ± 11 % of the control; threshold concentration for potentiation of IGABA ([1]; 2 μM GABA): 10 µM; IGABA, % of control ([1]; 50 μM steroid, 2 μM GABA): 172 ± 18 % of control; IGABA, % of control ([1]; 50 μM steroid, 5 μM GABA): 139 ± 16 % of control
C[C@]12CCC(=O)C[C@@H]1CC[C@@H]1[C@@H]2CC[C@]2(C)[C@@H](C(=O)CO)CC[C@@H]12 [5α-CORT, 21-Hydroxy-5α-pregnane-3,20-dione]	0.86 ± 0.2	32 ± 12.6 µM	0.71 ± 0.02 µM	No effect	-36%	0.37 ± 0.04	No effect	–	–
C[C@]12CCC(=O)C[C@H]1CC[C@@H]1[C@@H]2CC[C@]2(C)[C@@H](C(=O)CO)CC[C@@H]12 [5β-CORT, 21-Hydroxy-5β-pregnane-3,20-dione]	0.85 ± 0.3	29.3 ± 9.9 µM	13.1 ± 5.8 µM	No effect	-27%	0.61 ± 0.09	No effect	–	normalized charge (Q) of IGly, maximum inhibition (max) (glycine receptors (GlyR); area under the IGly curve): 0.96 ± 0.15; IC50 (glycine receptors (GlyR); [4]): 37 ± 13 µM
C[C@]12CCC(=O)C=C1CC[C@@H]1[C@@H]2CC[C@@]2(C)[C@H]1CC[C@]2(O)C(=O)CO [11-Deoxycortisol, 17α,21-Dihydroxypregn-4-ene-3,20-dione]	0.69 ± 0.2	21.4 ± 7.6 µM	13.8 ± 6.3 µM	-26%	-21%	0.50 ± 0.08	–	No effect	amplitude of IGABA, % of control (inhibition) ([1]; 100 μM steroid, 5 μM GABA): 58 ± 5 % of the control
C[C@]12CC[C@H]3[C@@H](CCC4=CC(=O)CC[C@@]43C)[C@@H]1CC[C@@H]2C(=O)CO [11-deoxy-CORT, 21-Hydroxypregn-4-ene-3,20-dione]	0.67 ± 0.2	22.9 ± 9.4 µM	12.2 ± 3.7 µM	No effect	-32%	0.72 ± 0.08	No effect	–	amplitude of IGABA, % of control (inhibition) [1]: 70 ± 3 % of the control; effect on IGly at low glycine (glycine receptors (GlyR); 1 μM steroid, 25 μM glycine (EC10)): did not affect; decrease in the peak amplitude of IGly (glycine receptors (GlyR); 50 μM steroid, 25 μM glycine (EC10)): 45 ± 7%
C[C@]12CC[C@H](O)CC1=CCC1C2CC[C@@]2(C)C1CC[C@]2(O)C(=O)CO (stereo partly drawn) [17α,21-diOH-PREG, 3β,17α,21-Trihydroxypregn-5-en-20-one]	0.45 ± 0.1	7.2 ± 2.6 µM	0.39 ± 0.05 µM	-27%	-76%	0.77 ± 0.03	No effect	–	normalized charge (Q) of IGly, maximum inhibition (max) (glycine receptors (GlyR); area under the IGly curve): 0.52 ± 0.01; IC50 (glycine receptors (GlyR); [4]): 0.73 ± 0.06 µM
C[C@]12C[C@H](O)[C@H]3[C@@H](CCC4=CC(=O)CC[C@@]43C)[C@@H]1CC[C@@H]2C(=O)CO [CORT, 11β,21-Dihydroxypregn-4-ene-3,20-dion]	0.54 ± 0.1	12.6 ± 4.8 µM	0.43 ± 0.05 µM	-26%	-64%	0.64 ± 0.02	–	No effect	–
C[C@]12CCC(=O)C=C1CC[C@@H]1[C@@H]2[C@@H](O)C[C@@]2(C)[C@H]1CC[C@]2(O)C(=O)CO [Cortisol, 11β,17α,21-Trihydroxypregn-4-ene-3,20-dione]	0.49 ± 0.1	20.2 ± 9.8 µM	0.63 ± 0.02 µM	-23%	-40%	0.42 ± 0.05	–	No effect	–
C[C@]12CCC(=O)C=C1CC[C@@H]1[C@@H]2C(=O)C[C@@]2(C)[C@H]1CC[C@]2(O)C(=O)CO [Cortisone, 17α,21-Dihydroxypregn-4-ene-3,11,20-trione]	0.57 ± 0.1	13.6 ± 5.5 µM	10.3 ± 3.4 µM	-25%	-24%	0.48 ± 0.06	–	No effect	–
CN1CCc2cc3c(cc2[C@H]1[C@@H]1OC(=O)c2c1ccc1c2OCO1)OCO3 [bicuculline]	–	–	–	–	–	–	–	–	effect on IGABA [1]: reversibly blocked
NCC(=O)O [glycine]	–	–	–	–	–	–	–	–	EC50 (glycine receptors (GlyR); read-out: EC50 of glycine for IGly, 600–1000 ms application): 90 ± 7 µM
